Where two headings read alike, the source gives them in different places.
Legend:
BRD4-BD12 (1-477) = BRD4-BD12 (1-477) (Homo sapiens (Human), UniProt O60885); assay: Alphascreen binding assay BRD4-BD12; conditions: BRD4(1 2) H4; read-out: Biochemical activity (IC50 μM) BRD4(1 2) H4
Outline: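 First, compound was preincubated 1 h at room temperature with the His-tagged BRD4 protein (BD1 44-164 or tandem BD12 1-477) and acetylated H4 peptide. Next, donor and acceptor beads were added at 7.5 μg/ml final. After 30 min, AlphaScreen emission was recorded.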

MV-4-11 cells = assay: Oncology cell growth assay MV-4-11 (CellTiter Glo); format: cell-based; conditions: Homo sapiens, MV4-11, 72 h, read-out: Cell activity (IC50 μM) MV-4-11 3d-Growth
Outline: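 MV-4-11 AML cells (MLL-AF4), 3000 per well, exposed to 8-point 1:3 compound titration from 10 μM top concentration (0.2% DMSO) for 72 h. Viability by CellTiter Glo luminescence, normalized to DMSO controls; pIC50 from four-parameter curve fit.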

bromodomain = assay: at least one of the bromodomain cell assays of Example 57; format: cell-based; conditions: at least one of the bromodomain cell assays described in Example 57; read-out: IC50 in at least one of the bromodomain cell assays

SMILES | IC50 (BRD4-BD12 (1-477)) | IC50 (MV-4-11 cells) | IC50 (bromodomain) | IC50 (MV-4-11 cells; MV-4-11, 3d growth)
[2H]C([2H])(C1CC(F)(F)C1)n1cc(-c2cnn(C(F)F)c2)c2ncc(-c3c(C)noc3C)cc21 [P-0256, 4-[1-[dideuterio-(3,3-difluorocyclobutyl)methyl]-3-[1-(difluoromethyl)pyrazol-4-yl]pyrrolo[3,2-b]pyridin-6-yl]-3,5-dimethyl-isoxazole] | < 1 µM | < 1 µM | < 10000 nM | –
[2H]C([2H])(C1CCC(F)(F)CC1)n1cc(-c2cnn(C(=O)OC(C)(C)C)c2)c2ncc(-c3c(C)noc3C)cc21 [P-0362, tert-butyl 4-[1-[dideuterio-(4,4-difluorocyclohexyl)methyl]-6-(3,5-dimethylisoxazol-4-yl)pyrrolo[3,2-b]pyridin-3-yl]pyrazole-1-carboxylate] | < 1 µM | < 1 µM | < 10000 nM | –
Cc1noc(C)c1-c1cnc2c(-c3ccc(C(=O)O)c(F)c3)cn(CC3CCC(F)(F)CC3)c2c1 [P-0406, 4-[1-[(4,4-difluorocyclohexyl)methyl]-6-(3,5-dimethylisoxazol-4-yl)pyrrolo[3,2-b]pyridin-3-yl]-2-fluoro-benzoic acid] | < 1 µM | < 1 µM | < 10000 nM | –
Cc1noc(C)c1-c1cnc2c(-c3ccc(C(=O)O)c(O)c3)cn(CC3(F)CCCCC3)c2c1 [P-0502, 4-[6-(3,5-dimethylisoxazol-4-yl)-1-[(1-fluorocyclohexyl)methyl]pyrrolo[3,2-b]pyridin-3-yl]-2-hydroxy-benzoic acid] | < 1 µM | – | < 10000 nM | < 1 µM
Cc1noc(C)c1-c1cnc2c(-c3cnc(C4CC4)nc3)cn(CC3CCC(F)(F)CC3)c2c1 [P-0405, 4-[3-(2-cyclopropylpyrimidin-5-yl)-1-[(4,4-difluorocyclohexyl)methyl]pyrrolo[3,2-b]pyridin-6-yl]-3,5-dimethyl-isoxazole] | < 1 µM | < 1 µM | < 10000 nM | –
Cc1noc(C)c1-c1cnc2c(-c3ccc(C(=O)O)c(O)c3)cn(CC3CCC(F)(F)CC3)c2c1 [P-0487, 4-[1-[(4,4-difluorocyclohexyl)methyl]-6-(3,5-dimethylisoxazol-4-yl)pyrrolo[3,2-b]pyridin-3-yl]-2-hydroxy-benzoic acid] | < 1 µM | – | < 10000 nM | < 1 µM
Cc1noc(C)c1-c1cnc2c(-c3ccc(C(N)=O)cc3)cn(CC3(F)CCCCC3)c2c1 [P-0466, 4-[6-(3,5-dimethylisoxazol-4-yl)-1-[(1-fluorocyclohexyl)methyl]pyrrolo[3,2-b]pyridin-3-yl]benzamide] | < 1 µM | – | < 10000 nM | < 1 µM
Cc1nnc(C)n1-c1cnc2c(-c3ccc(C(=O)O)cc3)cn(CC3CCC(F)(F)CC3)c2c1 [P-0420, 4-[1-[(4,4-difluorocyclohexyl)methyl]-6-(3,5-dimethyl-1,2,4-triazol-4-yl)pyrrolo[3,2-b]pyridin-3-yl]benzoic acid] | < 1 µM | 10 to 200 µM | < 10000 nM | –
COC(=O)c1ccc(-c2cn(C(c3ccccn3)c3ccccn3)c3cc(-c4c(C)noc4C)cnc23)cc1 [P-0574, methyl 4-[1-[bis(2-pyridyl)methyl]-6-(3,5-dimethylisoxazol-4-yl)pyrrolo[3,2-b]pyridin-3-yl]benzoate] | < 1 µM | – | < 10000 nM | < 1 µM
Cc1noc(C)c1-c1cnc2c(-c3ccc(CC(=O)O)cc3)cn(CC3CCC(F)(F)CC3)c2c1 [P-0413, 2-[4-[1-[(4,4-difluorocyclohexyl)methyl]-6-(3,5-dimethylisoxazol-4-yl)pyrrolo[3,2-b]pyridin-3-yl]phenyl]acetic acid] | < 1 µM | < 1 µM | < 10000 nM | –
Cc1noc(C)c1-c1cnc2c(I)cn([C@@H](C)c3ccccn3)c2c1 [P-0572, 4-[3-iodo-1-[(1S)-1-(2-pyridyl)ethyl]pyrrolo[3,2-b]pyridin-6-yl]-3,5-dimethyl-isoxazole] | < 1 µM | – | < 10000 nM | < 1 µM
Cc1noc(C)c1-c1cnc2c(-c3ccc(C(=O)O)cc3)cn(CC3(F)CCCCC3)c2c1 [P-0367, 4-[6-(3,5-dimethylisoxazol-4-yl)-1-[(1-fluorocyclohexyl)methyl]pyrrolo[3,2-b]pyridin-3-yl]benzoic acid] | < 1 µM | < 1 µM | < 10000 nM | –
Cc1noc(C)c1-c1cnc2c(-c3cnc(C4CC4)nc3)cn(CC3(F)CCCCC3)c2c1 [P-0474, 4-[3-(2-cyclopropylpyrimidin-5-yl)-1-[(1-fluorocyclohexyl)methyl]pyrrolo[3,2-b]pyridin-6-yl]-3,5-dimethyl-isoxazole] | < 1 µM | – | < 10000 nM | < 1 µM
Cc1noc(C)c1-c1cnc2c(-c3ccc(C#N)nc3)cn(CC3CCC(F)(F)CC3)c2c1 [P-0594, 5-[1-[(4,4-difluorocyclohexyl)methyl]-6-(3,5-dimethylisoxazol-4-yl)pyrrolo[3,2-b]pyridin-3-yl]pyridine-2-carbonitrile] | < 1 µM | – | < 10000 nM | < 1 µM
Cc1noc(C)c1-c1cnc2c(-c3cnn(C)c3)cn([C@@H](C)c3ccccn3)c2c1 [P-0516, 3,5-dimethyl-4-[3-(1-methylpyrazol-4-yl)-1-[(1S)-1-(2-pyridyl)ethyl]pyrrolo[3,2-b]pyridin-6-yl]isoxazole] | < 1 µM | – | < 10000 nM | < 1 µM
COC(=O)c1ccc(-c2cn(CC3CCCCCCC3)c3cc(-c4c(C)noc4C)cnc23)cc1 [P-0578, methyl 4-[1-(cyclooctylmethyl)-6-(3,5-dimethylisoxazol-4-yl)pyrrolo[3,2-b]pyridin-3-yl]benzoate] | < 1 µM | – | < 10000 nM | 1 to 10 µM
CNC(=O)Nc1ccc(-c2cn(CC3CCC(F)(F)CC3)c3cc(-c4c(C)noc4C)cnc23)cc1 [P-0561, 1-[4-[1-[(4,4-difluorocyclohexyl)methyl]-6-(3,5-dimethylisoxazol-4-yl)pyrrolo[3,2-b]pyridin-3-yl]phenyl]-3-methyl-urea] | < 1 µM | – | < 10000 nM | < 1 µM
Cc1noc(C)c1-c1cnc2c(-c3ccc(S(=O)(=O)NC4CC4)cc3)cn([C@@H](C)c3ccccn3)c2c1 [P-0557, N-cyclopropyl-4-[6-(3,5-dimethylisoxazol-4-yl)-1-[(1S)-1-(2-pyridyl)ethyl]pyrrolo[3,2-b]pyridin-3-yl]benzenesulfonamide] | < 1 µM | – | < 10000 nM | < 1 µM
CCOC(=O)c1ccc(-n2cc(CC3CCC(F)(F)CC3)c3cc(-c4c(C)noc4C)cnc32)nc1 [P-0429, ethyl 6-[3-[(4,4-difluorocyclohexyl)methyl]-5-(3,5-dimethylisoxazol-4-yl)pyrrolo[2,3-b]pyridin-1-yl]pyridine-3-carboxylate] | < 1 µM | – | < 10000 nM | 1 to 10 µM
[2H]C([2H])(C1CC(F)(F)C1)n1cc(I)c2ncc(-c3c(C)noc3C)cc21 [P-0254, 4-[1-[dideuterio-(3,3-difluorocyclobutyl)methyl]-3-iodo-pyrrolo[3,2-b]pyridin-6-yl]-3,5-dimethyl-isoxazole] | < 1 µM | < 1 µM | < 10000 nM | –
[2H]C([2H])(C1CCC(F)(F)CC1)n1cc(-c2ccc(O)nc2)c2ncc(-c3c(C)noc3C)cc21 [P-0342, 5-[1-[dideuterio-(4,4-difluorocyclohexyl)methyl]-6-(3,5-dimethylisoxazol-4-yl)pyrrolo[3,2-b]pyridin-3-yl]pyridin-2-ol] | < 1 µM | < 1 µM | < 10000 nM | –

From US10519177B2, “Heterocyclic compounds and uses thereof” (Plexxikon Inc., priority 2013, dated 2019)
